Measured values: PMC7162492, “Pharmacological and pharmacokinetic profile of the novel ocular hypotensive prodrug CKLP1 in Dutch-belted pigmented rabbits” (PLoS ONE, 2020)
“And” between values parts separate entries of the source, which are not always exact repeats. Equal values may be shown once.

Key:
[1] = Plasma pharmacokinetics after single intravenous injection of CKLP1 (LC-MS/MS); assay type: in vivo, Dutch-belted pigmented rabbits; details: rabbit, intravenous 0.25 mg/kg CKLP1
Protocol: (§1) LC-MS/MS analysis of all fluids were performed using a Waters (Milford, MA) Acquity UPLC BEH C18 column (1.7 μm, 2.1 x 50 mm) with an Agilent EC-C18 pre-column (2.7 μm, 2.1 x 5 mm) and a gradient elution program containing ultra-pure water and acetonitrile with 2.5 mM ammonium formate, at a flow rate of 0.2 ml/min. Flavopiridol was used as an internal standard. The column and auto-sampler temperatures were maintained at 40°C and 4°C, respectively. Source parameters were capillary voltage, 2.6 kV; source temperature, 150°C; desolvation temperature, 500°C; cone gas flow, 150 L/h; and desolvation gas flow, 800 L/h. The cone voltages and collision energies for CKLP1, levcromakalim and flavopiridol were determined by MassLynx-Intellistart software, v4.1, and were 32, 34 and 72 V (cone) and 20, 14 and 30 eV (collision), respectively. The retention times were 4.5 minutes for CKLP1, 5.9 minutes for levcromakalim and 5.7 minutes for flavopiridol.
(§2) To validate accurate measurement of CKLP1 and levcromakalim, known concentrations of CKLP1 (5, 10, 25, 50, 100, 250, 500 ng/ml) and levcromakalim (1, 5, 10, 25, 50, 100, 250 ng/ml) were added to human plasma (obtained from the Mayo Clinic Division of Transfusion Medicine under an Institutional Review Board approved protocol) to make calibration curves. Quality control was determined for each run by using known quantities of CKLP1 and levcromakalim to verify that the instrument recorded values consistent with the established standard curve. The effect of carryover was evaluated by injecting blank samples before and after running the standard samples for calibration curves. Unknown samples with signal to noise ratios >10 were recorded as acceptable concentrations. Samples with signal to noise ratios <10 were reported as not detectable (ND). Controls consisted of a double blank (without analytes and internal standard) and a single blank (only internal standard). The linearity of the calibration curves was determined by plotting the ratios of analytes to internal standard peak areas. The curve was fitted by least squares regression with a 1/x weighting for both CKLP1 and levcromakalim. Data was collected from 3–6.4 minutes for CKLP1 and 4–8 minutes for both levcromakalim and flavopiridol. Waters MassLynx Intellistart software v4.1 was used for analysis.
(§3) All experiments with animals were pre-approved by the Institutional Animal Care and Use Committee of the Mayo Clinic, Rochester, MN and adhered to the recommendations in the Guide for the Care and use of Laboratory Animals of the National Institutes of Health, and the tenets of the ARVO Statement for the Use of Animals in Vision Research. Female Dutch-belted pigmented rabbits (age 7 months) were obtained from Covance Research Products, Inc. (Denver, PA). Rabbits were housed in pairs and kept in a climate controlled room with 12 h light and dark cycles. Animals had unrestrained access to water and standard rabbit food pellets at all times. Upon receipt, animals were acclimated for at least 5 days before initiation of the experiment. IOP was measured with a handheld rebound tonometer (Icare Tonovet, Colonial Medical Supply, Franconia, NH, USA) in conscious and minimally restrained, non-anesthetized rabbits as previously described. Briefly, daily IOP was calculated from the average of 3 independent IOP measurements at 3 different time points each day. These time points corresponded to 1 h, 4 h and 23 h post treatment on any given day. Rabbits that needed to be handled for IOP were subjected to sham IOP measurements for two days prior to initiation of experiment. Rabbits (n = 3) were injected intravenously through the right ear vein with CKLP1 as a bolus dose equal to 0.25 mg/kg body weight. Additional rabbits were treated topically through instillation of 50 μl eye drops of a 10 mM (4.1 mg/ml) solution of CKLP1 in sterile PBS. […]

[2] = Plasma pharmacokinetics after topical eye drops of CKLP1, days 1, 4 and 8 (LC-MS/MS); assay type: in vivo, Dutch-belted pigmented rabbits; details: for AUClast / Clast / Cmax / Tlast / Tmax / half-life: plasma
Protocol: as §1, §2, §3

[3] = Tissue and fluid distribution after 90 days of daily topical CKLP1 (LC-MS/MS); assay type: in vivo, Dutch-belted pigmented rabbits; details: topical eye drops 10 mM CKLP1, 90 consecutive days
Protocol: as §1, §2, §3

[4] = system: Dutch-belted pigmented rabbits; experiment: Tolerability observation during topical CKLP1 treatment for 1, 4 or 8 days; assay type: in vivo; details: topical CKLP1 both eyes for 1, 4 or 8 days
Excerpt: as §3, with “experiment.” for “experiment. Rabbits (n = 3) were injected intravenously through the right ear vein with CKLP1 as a bolus dose equal to 0.25 mg/kg body weight. Additional rabbits were treated topically through instillation of 50 μl eye drops of a 10 mM (4.1 mg/ml) solution of CKLP1 in sterile PBS.”

[5] = eye drops 10 mM CKLP1 both eyes once daily, Day 4
[6] = eye drops 10 mM CKLP1 both eyes once daily, Day 8
[7] = eye drops 10 mM CKLP1 both eyes, Day 1

For “sodium [CKLP1, sodium [(3S,4R)-6-cyano-2,2-dimethyl-4-(2-oxopyrrolidin-1-yl)-chroman-3-yl phosphate]]”, the AUClast [1] was 2164.0 ± 482.5 ng·h/mL, the Clast [1] was 34.9 ± 42.4 ng/mL and the Cmax [1] was 1968.5 ± 831.0 ng/mL. It also gave a Tlast [1] of 5.6 ± 1.8 h, a Tmax [1] of 19.8 ± 23.0 min and a half-life [1] of 61.8 ± 55.2 min. It also gave an AUClast [2, 5] of 360 ± 82 ng·h/mL, a Clast [2, 5] of 4.2 ± 2.6 ng/mL and a Cmax [2, 5] of 30.6 ± 7.3 ng/mL. It also gave a Tlast [2, 5] of 24.0 ± 0.0 h, a Tmax [2, 5] of 325.0 ± 268.5 min and a half-life [2, 5] of 6.7 ± 2.0 min. The AUClast [2, 6] was 341 ± 45.2 ng·h/mL, the Clast [2, 6] was 4.2 ± 1.5 ng/mL and the Cmax [2, 6] was 36.3 ± 13.3 ng/mL. For the same substance, the Tlast [2, 6] was 24.0 ± 0.0 h, the Tmax [2, 6] was 20.0 ± 8.7 min and the half-life [2, 6] was 7.7 ± 3.0 min. For the same substance, the AUClast [2, 7] was 271 ± 55 ng·h/mL, the Clast [2, 7] was 5.1 ± 1.1 ng/mL and the Cmax [2, 7] was 20.0 ± 6.3 ng/mL. It also gave a Tlast [2, 7] of 24.0 ± 0.0 h, a Tmax [2, 7] of 360.0 ± 207.9 min and a half-life [2, 7] of 10.7 ± 4.1 min. For the same substance, the “Amount in plasma after topical CKLP1” value ([2]; topical 10 mM CKLP1 in the eye) was “trace amounts”, the “Concentration in Brain” value [3] was “not detected” and the “Concentration in Heart” value [3] was “not detected”. The “Concentration in Kidney” value [3] was 15.8 ±1.8 ng/g and 15.8 ± 1.8 (n = 6/6) ng/g, the “Concentration in Muscle” value [3] was “not detected” and the “Concentration in Plasma” value [3] was “no detectable levels”. The “Concentration in aqueous humor” value [3] was “undetectable”, the “Concentration in vitreous humor” value [3] was “undetectable” and the “Tolerability, visible signs of toxicity or discomfort” value [4] was “no visible signs of toxicity or discomfort”.
